The source of these data is patent US5459063A, “Plasmodium falciparum ribonucleotide reductase DNA” (priority 1993, dated 1995).

Like-named read-outs stand apart in the source and are kept apart here. Square brackets hold non-standard residues; d marks the D form. Ends that are not written are not given here. Peptide text beside a SMILES is read from it. Phe(4-N3) = [N-]=[N+]=Nc1ccc(C[C@H](N)C(=O)O)cc1; Phe(4-NH2) = Nc1ccc(C[C@H](N)C(=O)O)cc1

Assay [1] deals with T1, calf thymus/mouse ribonucleotide reductase (mammalian RR) (Bos taurus, UniProt Q32LP1).
T1 sequence (Q32LP1 1-791): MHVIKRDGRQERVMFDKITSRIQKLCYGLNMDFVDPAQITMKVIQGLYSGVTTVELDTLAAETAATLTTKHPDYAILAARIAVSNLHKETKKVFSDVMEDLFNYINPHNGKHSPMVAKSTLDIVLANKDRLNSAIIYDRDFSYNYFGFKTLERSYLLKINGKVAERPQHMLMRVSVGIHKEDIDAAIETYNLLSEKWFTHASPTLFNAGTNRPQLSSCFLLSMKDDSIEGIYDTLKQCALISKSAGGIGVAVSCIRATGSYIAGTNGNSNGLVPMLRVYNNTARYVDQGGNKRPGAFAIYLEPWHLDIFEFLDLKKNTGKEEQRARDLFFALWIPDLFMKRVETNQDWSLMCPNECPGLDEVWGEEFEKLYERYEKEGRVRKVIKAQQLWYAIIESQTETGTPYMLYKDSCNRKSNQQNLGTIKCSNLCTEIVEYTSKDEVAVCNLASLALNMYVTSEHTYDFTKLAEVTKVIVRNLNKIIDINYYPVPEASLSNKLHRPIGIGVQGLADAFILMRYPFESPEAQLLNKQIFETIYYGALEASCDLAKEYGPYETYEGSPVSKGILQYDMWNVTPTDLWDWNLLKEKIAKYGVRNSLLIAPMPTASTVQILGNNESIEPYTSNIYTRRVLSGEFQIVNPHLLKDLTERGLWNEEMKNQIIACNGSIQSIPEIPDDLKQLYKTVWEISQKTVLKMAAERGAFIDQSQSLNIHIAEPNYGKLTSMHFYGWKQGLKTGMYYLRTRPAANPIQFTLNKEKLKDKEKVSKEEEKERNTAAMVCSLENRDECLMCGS
Description: biochemical. Conditions: for Percent RI (percent relative inhibitory potency): 100 × (IC50 Ac(FTLDADF)/IC50 peptide analog). An excerpt:
From two to four assays were run

On to `CC(=O)N[C@@H](Cc1ccc(N)cc1)C(=O)N[C@H](C(=O)N[C@@H](CC(C)C)C(=O)N[C@@H](CC(=O)O)C(=O)N[C@@H](C)C(=O)N[C@@H](CC(=O)O)C(=O)N[C@@H](Cc1ccccc1)C(=O)O)[C@@H](C)O` [Peptide 9, Ac- (F(4'-NH2)TLDADF)] (Ac-[Phe(4-NH2)]TLDADF-OH), for which the IC50 in assay [1] is 100 µM. Moreover, in assay [1] (Table 4, mammalian RR), the “Percent RI (percent relative inhibitory potency)” value was found to be 10%.

Turning to `CC(=O)N[C@@H](Cc1ccc(N=[N+]=[N-])cc1)C(=O)N[C@H](C(=O)N[C@@H](CC(C)C)C(=O)N[C@@H](CC(=O)O)C(=O)N[C@@H](C)C(=O)N[C@@H](CC(=O)O)C(=O)N[C@@H](Cc1ccccc1)C(=O)O)[C@@H](C)O` [Peptide 10, Ac- (F(4'-N3)TLDADF)] (Ac-[Phe(4-N3)]TLDADF-OH), the IC50 in assay [1] came out at 100 µM. In addition, the “Percent RI (percent relative inhibitory potency)” value in assay [1] (Table 4, mammalian RR) stood at 10%.

Ac- (FTFTADF) [Peptide 14]: in assay [1] (Table 4, mammalian RR), the “Percent RI (percent relative inhibitory potency)” value was found to be 18 ± 4.2%. Also, the IC50 in assay [1] (read-out: IC50, concentration of peptide producing 50% inhibition of activity, Table 4, mammalian RR, Dixon plots of 4-6 concentration points, ranges are two independent determinations on different days) was in the range of 48 to 58 µM.

In the assay with calf thymus R1 (calf), Ac-(FTFTADF) (peptide) had a Percent RI (percent relative inhibitory potency), mammalian RR activity of 18%. In the assay with calf thymus R1 (calf), Ac-(FTLDALF) (peptide) came in with a Percent RI (percent relative inhibitory potency), mammalian RR activity of 35%. In assay [1], Ac-FALDADF [Peptide 12, Ac- (FALDADF)] had an IC50 of 35 to 40 µM. Further, the “Percent RI (percent relative inhibitory potency)” value in assay [1] (Table 4, mammalian RR) was found to be 24 ± 4.1%.

As to “Ac-FCLNTEF [Ac-(SEQ ID NO:7), Ac- (FCLNTEF)]”, the IC50 in assay [1] (IC50 on mammalian RR activity, Example 54 text, peptide bound to purified calf thymus R1 before adding recombinant mouse R2) was 160 µM. Also, the “times less potent an inhibitor on mammalian RR activity than Ac-(SEQ ID NO:6)” value in assay [1] (relative to Ac-(SEQ ID NO:6)) was 8-16 times. Regarding Ac-FLDADF [Peptide 25, Ac- (FLDADF)], the IC50 in assay [1] was found to be 412 µM. Besides, the “Percent RI (percent relative inhibitory potency)” value in assay [1] (Table 4, mammalian RR) was found to be 2.5%. The corresponding values for Ac-FSLDADF [Peptide 11, Ac- (FSLDADF)] are 40 to 42 µM and 25 ± 1.1%. With Ac-FTADADF [Peptide 15, Ac- (FTADADF)], the IC50 in assay [1] stood at 207 µM. In addition, in assay [1] (Table 4, mammalian RR), the “Percent RI (percent relative inhibitory potency)” value came out at 4.9 ± 0.60%. On to Ac-FTFNEDF [Peptide 30, Ac- (FTFNEDF)], for which, in assay [1], the IC50 was found to be 100 µM. In assay [1], Ac-FTLAADF [Peptide 17, Ac- (FTLAADF)] registered an IC50 of 286 to 336 µM. The “Percent RI (percent relative inhibitory potency)” value in assay [1] (Table 4, mammalian RR) stood at 2.9 ± 0.4%. The corresponding values for Ac-FTLDAAF [Peptide 23, Ac- (FTLDAAF)] are 34 to 35 µM and 28 ± 1.3%.

For the molecule Ac-FTLDADFAA [Peptide 28], the IC50 in assay [1] turned out to be 500 µM. Also, the “Percent RI (percent relative inhibitory potency)” value in assay [1] (Table 4, mammalian RR) is recorded as 2.1%. The like results for Ac-FTLDADL [Peptide 24, Ac- (FTLDADL)] were, in that order, > 400 µM and < 3%. The like results for Ac-FTLDAEF [Peptide 20, Ac- (FTLDAEF)] were, in that order, 450 to 620 µM and 1.7 ± 0.15%. The like results for Ac-FTLDALF [Peptide 22, Ac- (FTLDALF)] were, in that order, 29 to 30 µM and 35 ± 5.0%.

In the case of Ac-FTLDANF [Peptide 21, Ac- (FTLDANF)], the IC50 in assay [1] is 32 to 38 µM. Also, in assay [1] (Table 4, mammalian RR), the “Percent RI (percent relative inhibitory potency)” value amounted to 23 ± 1.0%. In turn, Ac-FTLDDF [Peptide 26, Ac- (FTLDDF)] yielded an IC50 in assay [1] of 322 µM. In assay [1] (Table 4, mammalian RR), the “Percent RI (percent relative inhibitory potency)” value was 3%. The corresponding values for Ac-FTLDF [Peptide 27, Ac- (FTLDF)] are 364 to 460 µM and 2.5 ± 0.18%. The corresponding values for Ac-FTLDGDF [Peptide 18, Ac- (FTLDGDF)] are 110 to 230 µM and 9 ± 0.6%. The corresponding values for Ac-FTLDLDF [Peptide 19, Ac- (FTLDLDF)] are 28 µM and 35%. With Ac-FTLNADF [Peptide 16, Ac- (FTLNADF)], in assay [1], the IC50 fell in the range of 25 to 29 µM. Besides, the “Percent RI (percent relative inhibitory potency)” value in assay [1] (Table 4, mammalian RR) was found to be 40 ± 2.4%.

In assay [1], Ac-FTVDADF [Peptide 13, Ac- (FTVDADF)] returned an IC50 of 30 µM. Besides, the “Percent RI (percent relative inhibitory potency)” value in assay [1] (Table 4, mammalian RR) came to 35%. The corresponding values for Ac-LDADF [Peptide 7, Ac- (LDADF)] are > 400 µM and < 3%.

For Ac-LTLDADF [Peptide 8, Ac- (LTLDADF)], the IC50 in assay [1] is > 400 µM. For the same molecule, the “Percent RI (percent relative inhibitory potency)” value in assay [1] (Table 4, mammalian RR) is listed as < 3%. The corresponding values for Ac-NSFTLDADF [Peptide 1] are 9 to 15 µM and 100%.

Molecule Ac-SFTLDADF [Peptide 2] displayed an IC50 in assay [1] of 8 to 20 µM. Also, the “Percent RI (percent relative inhibitory potency)” value in assay [1] (Table 4, mammalian RR) is listed as 100%.

Take Ac-TLDADF [Peptide 6, Ac- (TLDADF)]: in assay [1], the IC50 was > 400 µM. The “Percent RI (percent relative inhibitory potency)” value in assay [1] (Table 4, mammalian RR) is < 3%. The corresponding values for FTLDADF [Peptide 5, FTLDADF] are > 400 µM and < 3%.

Take SFTLDADF (peptide): in the assay with calf thymus R1 (calf), the IC50, inhibition of mammalian RR activity came to 80 µM and the Percent RI (percent relative inhibitory potency), mammalian RR activity is 25%. For the molecule SFTLDADF [Peptide 3], the IC50 in assay [1] is 80 µM. Moreover, in assay [1] (Table 4, mammalian RR), the “Percent RI (percent relative inhibitory potency)” value is reported as 25%. Molecule Ac-FTLDANF [Ac-(FTLDANF)] returned a Percent RI (percent relative inhibitory potency), mammalian RR activity with calf thymus R1 (calf) of 23%. As for Ac-FTLDLDF [Ac-(FTLDLDF)], in the assay with calf thymus R1 (calf), the IC50, inhibition of mammalian RR activity worked out at 28 µM and the Percent RI (percent relative inhibitory potency), mammalian RR activity turned out to be 35%. For Ac-TLDADF [Ac-(TLDADF)], in the assay with calf thymus R1 (calf), the IC50, inhibition of mammalian RR activity is > 400 µM and the Percent RI (percent relative inhibitory potency), mammalian RR activity was < 3%.

In the assay with calf thymus R1 (calf), Ac-[Phe(4-N3)]TLDADF [Ac-(F(4'-N3)TLDADF)] showed an IC50, inhibition of mammalian RR activity of 100 µM and a Percent RI (percent relative inhibitory potency), mammalian RR activity of 10%. Ac-FTLDGDF [Ac-(FTLDGDF)]: the Percent RI (percent relative inhibitory potency), mammalian RR activity with calf thymus R1 (calf) worked out at 9%. In the assay with calf thymus R1 (calf), Ac-FTVDADF [Ac-(FTVDADF)] had an IC50, inhibition of mammalian RR activity of 30 µM and a Percent RI (percent relative inhibitory potency), mammalian RR activity of 35%. Ac-FSLDADF [Ac-(FSLDADF)]: the Percent RI (percent relative inhibitory potency), mammalian RR activity with calf thymus R1 (calf) worked out at 25%. As to Ac-FTADADF [Ac-(FTADADF)], in the assay with calf thymus R1 (calf), the IC50, inhibition of mammalian RR activity is 207 µM and the Percent RI (percent relative inhibitory potency), mammalian RR activity was found to be 4.9%. Consider Ac-FTLDAEF [Ac-(FTLDAEF)], for which, in the assay with calf thymus R1 (calf), the Percent RI (percent relative inhibitory potency), mammalian RR activity amounted to 1.7%.

On to Ac-[Phe(4-NH2)]TLDADF [Ac-(F(4'-NH2)TLDADF)], for which, in the assay with calf thymus R1 (calf), the IC50, inhibition of mammalian RR activity amounted to 100 µM and the Percent RI (percent relative inhibitory potency), mammalian RR activity came to 10%. With FTLDADF, in the assay with calf thymus R1 (calf), the IC50, inhibition of mammalian RR activity was > 400 µM and the Percent RI (percent relative inhibitory potency), mammalian RR activity was < 3%. For Ac-SFTLDADF [Ac-(SFTLDADF)], the Percent RI (percent relative inhibitory potency), mammalian RR activity in the assay with calf thymus R1 (calf) was found to be 100%. Still for that read-out and setting: to Ac-FALDADF [Ac-(FALDADF)] belongs 24%; to Ac-FTLAADF [Ac-(FTLAADF)], 2.9%; to Ac-FTLNADF [Ac-(FTLNADF)], 40%. In the case of Ac-LTLDADF [Ac-(LTLDADF)], in the assay with calf thymus R1 (calf), the IC50, inhibition of mammalian RR activity is > 400 µM and the Percent RI (percent relative inhibitory potency), mammalian RR activity is < 3%.

As to Ac-LDADF [Ac-(LDADF)], in the assay with calf thymus R1 (calf), the IC50, inhibition of mammalian RR activity is > 400 µM and the Percent RI (percent relative inhibitory potency), mammalian RR activity is < 3%.
